Data from the Deep4Chem optical property database.
Several values for one entry are separate records, joined by “and”; a condition that tells them apart may be missing. Equal entries are not always repeated. Values belong to the compound of their own block, whether it stands above or below them.

Test: solvent given as SMILES
[1] = in c1cc(-n2c3ccccc3c3ccccc32)cc(-n2c3ccccc3c3ccccc32)c1

Structure (SMILES): Cn1cc(-c2nc3ccccc3nc2C#Cc2ccc(C#N)cc2)c2ccccc21
emission maximum (in ClCCl): 520 nm

Structure (SMILES): O=S(=O)(c1ccc(N2c3ccccc3N(c3ccccc3)c3ccccc32)cc1)c1ccc(N2c3ccccc3N(c3ccccc3)c3ccccc32)cc1
emission maximum (in Cc1ccccc1): 577 nm
emission maximum [1]: 580 nm

Structure (SMILES): c1ccc(N(c2ccccc2)c2ccc(-c3ccc(-c4nc(-c5ccccn5)n(-c5ccccc5)n4)cc3)cc2)cc1
emission maximum (in ClCCl): 435 nm

Structure (SMILES): COc1ccc2c(c1)c1ccc3cccc4c5cccc6oc(=O)c2c(c65)c1c34
emission maximum (in C1CCOC1): 440 nm

Structure (SMILES): CCn1c(-c2ccc(-c3ccc(-c4ccc(-c5n(CC)c6ccccc6[n+]5CC)cc4)c(C)c3)cc2)[n+](CC)c2ccccc21
emission maximum (in O): 400 nm

Structure (SMILES): CC(C)[Si](C#Cc1c2cc3ccccc3cc2c(C#Cc2ccc(Br)cc2)c2cc3ccccc3cc12)(C(C)C)C(C)C
emission maximum (in ClCCl): 663 nm

Structure (SMILES): COc1ccc(-c2ccc3c(c2)c2cc(-c4ccc(OC)cc4)ccc2n3-c2ccc(C(=O)c3ccc4sc5ccccc5c4c3)nc2)cc1
emission maximum (in Cc1ccccc1): 487.2 nm
emission maximum [1]: 493 nm

Structure (SMILES): CCCCC1(CCCC)c2ccccc2-c2ccc(-c3c4c(nc5ccccc35)-c3cc5c(cc3CC4)-c3nc4ccccc4c(-c4ccc6c(c4)C(CCCC)(CCCC)c4ccccc4-6)c3CC5)cc21
emission maximum (in ClC(Cl)Cl): 385 nm

Structure (SMILES): CCN(CC)c1ccc(-c2nc3c(c4c2-c2ccccc2CC4)-c2ccccc2CC3)cc1
emission maximum (in C1CCOC1): 452 nm
emission maximum (in CC#N): 463 nm
emission maximum (in CCCCCC): 425 nm
emission maximum (in CCOC(C)=O): 449 nm
emission maximum (in CO): 461 nm
emission maximum (in CS(C)=O): 470 nm
emission maximum (in Cc1ccccc1): 437 nm
emission maximum (in ClCCl): 449 nm

Structure (SMILES): c1ccc(Nc2nc(Nc3ccccc3)nc(Nc3ccc4c5cccc6cccc(c7cccc3c74)c65)n2)cc1
emission maximum (in C1COCCO1): 487 nm
emission maximum (in CC#N): 492 nm
emission maximum (in CCCCOCCCC): 486 nm
emission maximum (in CCOC(C)=O): 488 nm

Structure (SMILES): Cc1ccc([C@@H]2C[C@](O)(c3ccccn3)C[C@](O)(c3ccccn3)[C@H]2C(=O)c2ccc(N(c3ccccc3)c3ccccc3)cc2)cc1
emission maximum (in C1CCOC1): 495 nm
emission maximum (in CC#N): 525 nm
emission maximum (in CCO): 511 nm
emission maximum (in CCOC(C)=O): 496 nm
emission maximum (in CN(C)C=O): 523 nm
emission maximum (in ClCCl): 516 nm
emission maximum (in c1ccccc1): 466 nm

Structure (SMILES): C[Si](C)(C)C#Cc1cc(C#C[Si](C)(C)C)c2ccc3c(C(=O)c4ccccc4)cc(C#C[Si](C)(C)C)c4ccc1c2c43
emission maximum (in ClCCl): 467 nm

Structure (SMILES): N#Cc1nc(N(Cc2ccccc2I)Cc2ccccc2I)c(C#N)nc1N(Cc1ccccc1I)Cc1ccccc1I
emission maximum (in ClC(Cl)Cl): 567 nm

Structure (SMILES): O=S1(=O)c2ccc(-c3ccc4c(c3)c3ccccc3n4-c3ccccc3)cc2C2(c3cc(-c4ccc5c(c4)c4ccccc4n5-c4ccccc4)ccc31)c1cc(-c3ccc4c(c3)c3ccccc3n4-c3ccccc3)ccc1S(=O)(=O)c1ccc(-c3ccc4c(c3)c3ccccc3n4-c3ccccc3)cc12
emission maximum (in CC1CCCO1): 413 nm

Structure (SMILES): Cc1ccccc1C1=C2C=c3c(oc4ccccc34)=[N+]2[B-](F)(F)n2c1cc1c3ccccc3oc12
emission maximum (in C1CCCCC1): 595.5 nm
emission maximum (in CCOC(C)=O): 595 nm
emission maximum (in CO): 595 nm

Structure (SMILES): COC(=O)c1ccc(C#Cc2ccc(N(C)C)cc2)cc1
emission maximum (in C1CCCCC1): 426 nm
emission maximum (in C1CCOC1): 482 nm
emission maximum (in C1COCCO1): 450 nm
emission maximum (in CC1CCCO1): 464.51 nm
emission maximum (in CC#N): 544.01 nm
emission maximum (in CC(C)=O): 426.99 nm
emission maximum (in CC(C)CC(C)(C)C): 377.5 nm
emission maximum (in CC(C)O): 441.5 nm
emission maximum (in CCCCCCCCCCCCCCCC): 370 nm
emission maximum (in CCCCCCCCCCCCCCCCCl): 382.5 nm
emission maximum (in CCOC(C)=O): 470.5 nm
emission maximum (in CCOCC): 458.51 nm
emission maximum (in CN(C)C=O): 524 nm
emission maximum (in CO): 465.01 nm
emission maximum (in CS(C)=O): 548.49 nm
emission maximum (in Cc1ccccc1): 381 nm

Structure (SMILES): CC1CCC(=CS/C=C/c2ccc(/C=C/SC=C3CCC(C)CC3)cc2)CC1 (centres undefined)
emission maximum (in ClCCl): 427 nm

Structure (SMILES): Cc1ccccc1N(c1ccc(C(C)(C)C)cc1)c1ccc2ccc3c(N(c4ccc(C(C)(C)C)cc4)c4ccccc4C)ccc4ccc1c2c43
emission maximum (in Cc1ccccc1): 462 nm

Structure (SMILES): Cc1cc(C)c(C2=C3C=C(c4ccc(C(C)(C)C)cc4)C(c4ccc(C(C)(C)C)cc4)=[N+]3[B-](F)(F)n3c2cc(-c2ccc(C(C)(C)C)cc2)c3-c2ccc(C(C)(C)C)cc2)c(C)c1
emission maximum (in C1CCCCC1): 639 nm
emission maximum (in C1CCOC1): 628 nm
emission maximum (in CC#N): 643 nm
emission maximum (in Cc1ccccc1): 645 nm
emission maximum (in ClCCl): 644 nm

Structure (SMILES): CCCCCCN1C(=O)c2cccc3c(-c4ccc(C)s4)ccc(c23)C1=O
emission maximum (in ClC(Cl)Cl): 482 nm

Structure (SMILES): CCN(CC)c1ccc2c(-c3ccccc3C(=O)O)c3c([o+]c2c1)/C(=C/Nc1ccccc1)CCC3
emission maximum (in CCO): 641 nm
emission maximum (in ClC(Cl)Cl): 644 nm
emission maximum (in ClCCl): 644 nm

Structure (SMILES): c1ccc(N2c3ccc4ccccc4c3-c3c4ccccc4cn[n+]3[B-]2(c2ccccc2)c2ccccc2)cc1
emission maximum (in Cc1ccccc1): 657 nm

Structure (SMILES): c1ccc(Cn2c3sccc3c3c4nsnc4c4c5ccsc5n(Cc5ccccc5)c4c32)cc1
emission maximum (in Cc1ccccc1): 508 nm
emission maximum (in ClCCl): 541 nm

Structure (SMILES): CN(C)c1ccc(/C=C/c2cc[n+](C)cc2)cc1
emission maximum (in C1CCOC1): 590 nm
emission maximum (in CC1COC(=O)O1): 600 nm
emission maximum (in CC#N): 625 nm and 605 nm
emission maximum (in CC(C)=O): 602 nm
emission maximum (in CC(C)O): 591 nm
emission maximum (in CCO): 594 nm
emission maximum (in CCOC(C)=O): 595 nm
emission maximum (in CN(C)C=O): 596 nm
emission maximum (in CO): 596 nm
emission maximum (in CS(C)=O): 610 nm
emission maximum (in ClC(Cl)Cl): 585 nm
emission maximum (in ClCCl): 608 nm
emission maximum (in O): 624 nm and 597 nm
emission maximum (in c1ccncc1): 605 nm

Structure (SMILES): Cc1ccc(C2=Cc3c4ccccc4cc[n+]3[B-](F)(F)O2)cc1
emission maximum (in ClC(Cl)Cl): 471 nm

Structure (SMILES): CC1=C(C#Cc2ccc([Si](c3ccccc3)(c3ccccc3)c3ccccc3)cc2)C(C)=[N+]2C1=C(c1ccccc1)c1c(C)c(C#Cc3ccc([Si](c4ccccc4)(c4ccccc4)c4ccccc4)cc3)c(C)n1[B-]2(F)F
emission maximum (in ClCCl): 600 nm

Structure (SMILES): [O-][n+]1c(/C=C/c2cccs2)nc(N2CCOCC2)c2c1CCCC2
emission maximum (in ClCCl): 534 nm

Structure (SMILES): Cc1cccc2c3ccccc3n(-c3ccc(-c4c(-c5ccccc5)c(C#N)c(C#N)c(-c5ccccc5)c4-c4ccc(-n5c6ccccc6c6cccc(C)c65)cc4)cc3)c12
emission maximum (in Cc1ccccc1): 440 nm
emission maximum (in O=P(c1ccccc1)(c1ccccc1)c1ccc2oc3ccc(P(=O)(c4ccccc4)c4ccccc4)cc3c2c1): 450 nm

Structure (SMILES): Cc1cc(C)c(C2=C3C=CC=[N+]3[B-]3(c4cccc5ccccc45)Oc4cc(O)cc5c6ccc(C)cc6c6cc2n3c6c45)c(C)c1 (centres undefined)
emission maximum (in ClC(Cl)Cl): 669 nm

Structure (SMILES): O=c1c2ccccc2n(-c2ccc(-c3ccc(-n4c5ccccc5c(=O)c5ccccc54)cc3)cc2)c2ccccc12
emission maximum (in ClCCl): 405 nm

Structure (SMILES): CCCCCCN(CCCCCC)c1ccc(C#Cc2ccc(C#Cc3ccc(-c4ccc(C#Cc5ccc(C#Cc6ccc(N(CCCCCC)CCCCCC)cc6)cc5)cc4)cc3)cc2)cc1
emission maximum (in Cc1ccccc1): 433 nm

Structure (SMILES): c1ccc(-c2nc(-c3ccccc3)nc(-c3ccc(-n4c5ccccc5c5cc(-c6ccc7oc8ccccc8c7c6)ccc54)cc3)n2)cc1
emission maximum (in CCOC(C)=O): 470 nm
emission maximum (in CN(C)C=O): 526 nm
emission maximum (in Cc1ccccc1): 433 nm

Second part, the compound after the results:

emission maximum (in c1ccccc1): 564 nm
Structure (SMILES): Cc1nc2c(ccc3ccc(N(C)C)cc32)oc1=O

emission maximum (in ClCCl): 631 nm
Structure (SMILES): CC1=CC(C)=[N+]2C1=Cc1c3ccccc3c(-c3[nH]c(C)cc3C)n1[B-]2(F)F

emission maximum (in CCO): 582 nm
emission maximum (in O): 568 nm
Structure (SMILES): COc1cccc(OC)c1-c1c2ccc(=[N+]3CCNCC3)cc-2oc2cc(N3CCNCC3)ccc12

emission maximum (in O): 663 nm
Structure (SMILES): COc1ccccc1C1=C2C=CC(=[N+](C)C)C=C2[Si](C)(C)c2cc(N(C)C)ccc21

emission maximum (in ClCCl): 422 nm
Structure (SMILES): CCOC(=O)c1c(-c2cc3ccc(OC)cc3oc2=O)nn(-c2cccc(C)c2)c1C(=O)OCC

emission maximum (in CC#N): 395 nm
emission maximum (in CCCCOCCCC): 394 nm
emission maximum (in CO): 395 nm
Structure (SMILES): c1ccc(Nc2nc(Nc3ccccc3)nc(Nc3ccc4ccc5cccc6ccc3c4c56)n2)cc1

emission maximum (in ClC(Cl)Cl): 383 nm
Structure (SMILES): CC[Si](C)(C)c1cc2ccc3cccc4ccc(c1C(=O)NC(C)(C)C)c2c34

emission maximum (in ClC(Cl)Cl): 647 nm
Structure (SMILES): F[B-]1(F)n2c(cc3c2-c2ccccc2CC3)C(c2ccc(I)cc2)=C2C=C3CCc4ccccc4C3=[N+]21

emission maximum (in CCO): 417 nm
Structure (SMILES): COC(=O)C(CCCCNC(=O)CCNc1cccc2ccccc12)NC(C)=O (centres undefined)

emission maximum (in ClCCl): 456 nm
Structure (SMILES): COc1cc(C(=O)c2c(C)c3ccc4cccc5c6cccc7ccc2c(c76)c3c45)cc(OC)c1OC

emission maximum (in CC#N): 424 nm
Structure (SMILES): Cc1cc2c(ccc3c(C)[n+](C)c(C)cc32)c(C)[n+]1C

emission maximum (in CC#N): 469 nm
Structure (SMILES): Cc1ccc2nc3[nH]c(=O)[nH]c(=O)c3nc2c1C

emission maximum (in O): 407 nm
Structure (SMILES): Nc1ccc2ccc([O-])cc2c1

emission maximum (in CCO): 470 nm
emission maximum (in ClCCl): 460 nm
Structure (SMILES): CCN(CC)c1ccc2cc(C#N)/c(=N\C(=O)C(C)C)oc2c1

emission maximum (in C1COCCO1): 447 nm
Structure (SMILES): O=C1OC(c2ccccc2)=N/C1=C\c1ccccc1

emission maximum (in CCCCCC): 455 nm
emission maximum (in ClCCl): 473 nm
Structure (SMILES): CC(C)[Si](C#Cc1ccc(C#C[Si](C(C)C)(C(C)C)C(C)C)c2nc3cc4c(cc3nc12)[C@H]1c2ccccc2[C@@H]4c2ccccc21)(C(C)C)C(C)C

emission maximum (in ClC(Cl)Cl): 577 nm
Structure (SMILES): N#Cc1nc(N(Cc2ccc(Cl)cc2)Cc2ccc(Cl)cc2)c(C#N)nc1N(Cc1ccc(Cl)cc1)Cc1ccc(Cl)cc1

emission maximum (in CCO): 550 nm
emission maximum (in ClCCl): 553 nm
emission maximum (in O): 564 nm
Structure (SMILES): O=Cc1ccc(-c2ccc(O)c(-c3nc4ccccc4s3)c2)o1

emission maximum (in C1CCOC1): 482 nm
Structure (SMILES): c1cc2ccc3cc4[nH]c(-c5cc6c(cc7ccc8cccc9ccc6c7c89)[nH]5)cc4c4ccc(c1)c2c34

emission maximum (in CCO): 353 nm
Structure (SMILES): c1ccc(N(c2ccccc2)c2ccccc2)cc1

emission maximum (in CC#N): 590 nm
Structure (SMILES): c1cc2c3c(cccc3c1)C(N1CCOCCOCCOCCOCC1)=N2

emission maximum (in ClCCl): 600 nm
Structure (SMILES): COc1ccc2cc(/C=C/C3=[O+][B-](F)(F)OC(/C=C/c4ccc5cc(OC)ccc5c4)=C3c3ccccc3)ccc2c1
